In PubChem BioAssay (NCI):
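Cultured in 96-well plates, cells were exposed to test compound for 48 hours across five concentrations. At the GI50, growth is halved. Definition used: TGI = concentration required for complete inhibition of growth.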

Key:
Experiment in all cases: inhibition of tumour cell growth, NCI panel, 48 h
[1] = tested on: 786-0 renal
[2] = tested on: A498 renal
[3] = tested on: A549 NSCLC
[4] = tested on: ACHN renal
[5] = tested on: BT-549 breast
[6] = tested on: CAKI-1 renal
[7] = tested on: CCRF-CEM leukemia
[8] = tested on: COLO 205 colon
[9] = tested on: DU-145 prostate
[10] = tested on: EKVX NSCLC
[11] = tested on: HCC-2998 colon
[12] = tested on: HCT-116 colon
[13] = tested on: HCT-15 colon
[14] = tested on: HL-60(TB) leukemia
[15] = tested on: HOP-62 NSCLC
[16] = tested on: HOP-92 NSCLC
[17] = tested on: HS 578T breast
[18] = tested on: HT29 colon
[19] = tested on: IGROV1 ovarian
[20] = tested on: K-562 leukemia
[21] = tested on: KM12 colon
[22] = tested on: LOX IMVI melanoma
[23] = tested on: M14 melanoma
[24] = tested on: MALME-3M melanoma
[25] = tested on: MCF7 breast
[26] = tested on: MDA-MB-435
[27] = tested on: MDA-MB-468 breast
[28] = tested on: MOLT-4 leukemia
[29] = tested on: NCI-H226 lung
[30] = tested on: NCI-H23 lung
[31] = tested on: NCI-H460 lung
[32] = tested on: NCI-H522 lung
[33] = tested on: NCI/ADR-RES ovarian
[34] = tested on: OVCAR-3 ovarian
[35] = tested on: OVCAR-4 ovarian
[36] = tested on: OVCAR-5 ovarian
[37] = tested on: OVCAR-8 ovarian
[38] = tested on: PC-3 prostate
[39] = tested on: RPMI-8226 leukemia
[40] = tested on: RXF 393 renal
[41] = tested on: SF-268 CNS
[42] = tested on: SF-295 CNS
[43] = tested on: SF-539 CNS
[44] = tested on: SK-MEL-28 melanoma
[45] = tested on: SK-MEL-5 melanoma
[46] = tested on: SK-OV-3 ovarian
[47] = tested on: SN12C renal
[48] = tested on: SNB-19 CNS
[49] = tested on: SR leukemia
[50] = tested on: SW-620 colon
[51] = tested on: T-47D breast
[52] = tested on: TK-10 renal
[53] = tested on: U251 CNS
[54] = tested on: UACC-257 melanoma
[55] = tested on: UACC-62 melanoma

Compound: COc1c(B(O)O)cc(F)cc1-c1nc2c(F)cc3[nH]ncc3c2c2c1CCCC2
- GI50 [1]: 2.02 µM
- TGI [1]: 18.7 µM
- GI50 [2]: 12.8 µM
- TGI [2]: 46.5 µM
- GI50 [3]: 3.53 µM
- TGI [3]: 86.5 µM
- GI50 [4]: 1.38 µM
- TGI [4]: 42.4 µM
- GI50 [5]: 0.0845 µM
- TGI [5]: 6.85 µM
- GI50 [6]: 0.158 µM
- TGI [6]: 1.58 µM
- GI50 [7]: 3.07 µM
- TGI [7]: 80.3 µM
- GI50 [8]: 4.85 µM
- TGI [8]: 19.3 µM
- GI50 [9]: 6.53 µM
- TGI [9]: 56.4 µM
- GI50 [10]: 5.04 µM
- TGI [10]: 63.4 µM
- GI50 [11]: 11.8 µM
- TGI [11]: 40.1 µM
- GI50 [12]: 2.1 µM
- TGI [12]: 36.7 µM
- GI50 [13]: 4.45 µM
- TGI [13]: 44.5 µM
- GI50 [14]: 2.42 µM
- TGI [14]: 10.9 µM
- GI50 [15]: 2.95 µM
- TGI [15]: 54 µM
- GI50 [16]: 0.0199 µM
- TGI [16]: 86.5 µM
- GI50 [17]: 0.293 µM
- TGI [17]: 63.9 µM
- GI50 [18]: 14.6 µM
- TGI [18]: > 100 µM
- GI50 [19]: 7.75 µM
- TGI [19]: 45.9 µM
- GI50 [20]: 19.1 µM
- TGI [20]: > 100 µM
- GI50 [21]: 4.47 µM
- TGI [21]: 31.6 µM
- GI50 [22]: 2.43 µM
- TGI [22]: 16.5 µM
- GI50 [23]: 16.4 µM
- TGI [23]: 35.4 µM
- GI50 [24]: 14.8 µM
- TGI [24]: 34.2 µM
- GI50 [25]: 3.83 µM
- TGI [25]: 23.1 µM
- GI50 [26]: 13.8 µM
- TGI [26]: 34.2 µM
- GI50 [27]: 11.7 µM
- TGI [27]: 39.9 µM
- GI50 [28]: 2.75 µM
- TGI [28]: 30.9 µM
- GI50 [29]: 3.3 µM
- TGI [29]: 72.8 µM
- GI50 [30]: 7.03 µM
- TGI [30]: 31.3 µM
- GI50 [31]: 4.1 µM
- TGI [31]: 28.9 µM
- GI50 [32]: 3.66 µM
- TGI [32]: 43.6 µM
- GI50 [33]: 8.18 µM
- TGI [33]: > 100 µM
- GI50 [34]: 15.5 µM
- TGI [34]: 72.6 µM
- GI50 [35]: 14.9 µM
- TGI [35]: 59.4 µM
- GI50 [36]: 5.77 µM
- TGI [36]: 66 µM
- GI50 [37]: 4.82 µM
- TGI [37]: > 100 µM
- GI50 [38]: 4.9 µM
- TGI [38]: > 100 µM
- GI50 [39]: 2.14 µM
- TGI [39]: 19.6 µM
- GI50 [40]: 0.0887 µM
- TGI [40]: 1.9 µM
- GI50 [41]: 3.05 µM
- TGI [41]: 81.1 µM
- GI50 [42]: 10.7 µM
- TGI [42]: 40.1 µM
- GI50 [43]: 0.596 µM
- TGI [43]: 12.7 µM
- GI50 [44]: 13.1 µM
- TGI [44]: 38.4 µM
- GI50 [45]: 14.4 µM
- TGI [45]: 33.2 µM
- GI50 [46]: 4.1 µM
- TGI [46]: 77.2 µM
- GI50 [47]: 2.9 µM
- TGI [47]: 62.2 µM
- GI50 [48]: 3.46 µM
- TGI [48]: 66.4 µM
- GI50 [49]: 1.4 µM
- TGI [49]: 11.4 µM
- GI50 [50]: 4.15 µM
- TGI [50]: > 100 µM
- GI50 [51]: 12.5 µM
- TGI [51]: 61.9 µM
- GI50 [52]: 0.275 µM
- TGI [52]: > 100 µM
- GI50 [53]: 5.34 µM
- TGI [53]: > 100 µM
- GI50 [54]: 14.6 µM
- TGI [54]: 62.8 µM
- GI50 [55]: 4.09 µM
- TGI [55]: 17.1 µM
